Data taken from ChEMBL document CHEMBL4732160, “Design and synthesis of 7-O-1,2,3-triazole hesperetin derivatives to relieve inflammation of acute liver injury in mice” (Eur J Med Chem, 2021).
Active and inactive are the calls of the source. The calls are words filed in the database; no cut-off is given here.

Columns and labels:
RAW264.7 [1] = assay: Antiinflammatory activity in mouse RAW264.7 cells assessed as inhibition of LPS-induced NO production at 10 uM preincubated for 2 hrs followed by LPS stimulation and measured after 24 hrs by Griess method relative to control; format: functional; settings: time 26 hrs
RAW264.7 [2] = assay: Antiinflammatory activity in mouse RAW264.7 cells assessed as inhibition of LPS-induced NO production preincubated for 2 hrs followed by LPS stimulation and measured after 24 hrs by Griess method; format: functional, cell-based
[3] = Cytotoxicity against mouse RAW264.7 cells assessed as cell viability at 40 uM measured after 24 hrs by MTT assay relative to control; format: cell-based
RAW264.7 [4] = assay: Cytotoxicity against mouse RAW264.7 cells assessed as reduction in cell viability at 60 uM measured after 24 hrs by MTT assay; format: cell-based; settings: raw264.7, 24 h
RAW264.7 [5] = assay: Antiinflammatory activity in mouse RAW264.7 cells assessed as inhibition of LPS-induced TNFalpha production at 10 uM preincubated for 1 hr followed by LPS stimulation and measured after 22 hrs by ELISA; format: functional, cell-based; settings: time 23.0 hrs
RAW264.7 [6] = assay: Antiinflammatory activity in mouse RAW264.7 cells assessed as inhibition of LPS-induced IL1beta production at 10 uM preincubated for 1 hr followed by LPS stimulation and measured after 22 hrs by ELISA; format: functional, cell-based; settings: time 23.0 hrs
RAW264.7 [7] = assay: Antiinflammatory activity in mouse RAW264.7 cells assessed as inhibition of LPS-induced IL6 production at 10 uM preincubated for 1 hr followed by LPS stimulation and measured after 22 hrs by ELISA; format: functional, cell-based; settings: time 23.0 hrs
RAW264.7 [8] = assay: Antiinflammatory activity in mouse RAW264.7 cells assessed as inhibition of LPS-induced TNFalpha production preincubated for 1 hr followed by LPS stimulation and measured after 22 hrs by ELISA; format: functional, cell-based; settings: dose 1.25-20 µM, time 23.0 hrs
RAW264.7 [9] = assay: Antiinflammatory activity in mouse RAW264.7 cells assessed as inhibition of LPS-induced IL1beta production preincubated for 1 hr followed by LPS stimulation and measured after 22 hrs by ELISA; format: functional, cell-based; settings: dose 1.25-20 µM, time 23.0 hrs
RAW264.7 [10] = assay: Antiinflammatory activity in mouse RAW264.7 cells assessed as inhibition of LPS-induced IL6 production preincubated for 1 hr followed by LPS stimulation and measured after 22 hrs by ELISA; format: functional, cell-based; settings: dose 1.25-20 µM, time 23.0 hrs
RAW264.7 [11] = assay: Antiinflammatory activity in mouse RAW264.7 cells assessed as inhibition of LPS-induced iNOS expression preincubated for 1 hr followed by LPS stimulation and measured after 24 hrs by Western blot analysis; format: functional, cell-based; settings: dose 5-20 µM, time 25.0 hrs
RAW264.7 [12] = assay: Antiinflammatory activity in mouse RAW264.7 cells assessed as inhibition of LPS-induced COX2 expression preincubated for 1 hr followed by LPS stimulation and measured after 24 hrs by Western blot analysis; format: functional, cell-based; settings: dose 5-20 µM, time 25.0 hrs
RAW264.7 [13] = assay: Inhibition of LPS-induced NFkappaB activation in mouse RAW264.7 cells assessed as reduction in IkappaBalpha phosphorylation at 5 to 20 uM preincubated for 1 hr followed by LPS-stimulation and measured after 0.5 hrs by Western blot analysis; format: cell-based; settings: dose 5-20 µM, time 1.5 hrs
RAW264.7 [14] = assay: Inhibition of LPS-induced NFkappaB activation in mouse RAW264.7 cells assessed as reduction in p65 nuclear translocation preincubated for 1 hr followed by LPS-stimulation and measured after 0.5 hrs by Western blot analysis; format: cell-based; settings: dose 5-20 µM, time 1.5 hrs
RAW264.7 [15] = assay: Antiinflammatory activity in mouse RAW264.7 cells assessed as inhibition of LPS-induced ROS production preincubated for 1 hr followed by LPS stimulation and measured after 24 hrs by DCFH-DA staining based flow cytometry; format: functional, cell-based; settings: dose 2.5-10 µM, time 25.0 hrs
Mus musculus [16] = assay: Antiinflammatory activity in CCl4-induced C57BL/6J mouse model of liver injury assessed as reduction in liver damage at 50 to 200 mg/kg administered daily for 7 days followed by CCl4 addition and measured after 24 hrs by H and E staining based microscopic analysis; format: functional, organism-based; settings: dose 50-200 mg/kg, time 8.0 day
Mus musculus [17] = assay: Antiinflammatory activity in CCl4-induced C57BL/6J mouse model of liver injury assessed as reduction in ALT level administered daily for 7 days followed by CCl4 addition and measured after 24 hrs; format: functional, organism-based; settings: dose 50-200 mg/kg, time 8.0 day
Mus musculus [18] = assay: Antiinflammatory activity in CCl4-induced C57BL/6J mouse model of liver injury assessed as reduction in TNFalpha expression administered daily for 7 days followed by CCl4 addition and measured after 24 hrs by ELISA; format: functional, organism-based; settings: dose 50-200 mg/kg, time 8.0 day
Mus musculus [19] = assay: Antiinflammatory activity in CCl4-induced C57BL/6J mouse model of liver injury assessed as reduction in IL1beta expression administered daily for 7 days followed by CCl4 addition and measured after 24 hrs by ELISA; format: functional, organism-based; settings: dose 50-200 mg/kg, time 8.0 day
Mus musculus [20] = assay: Antiinflammatory activity in CCl4-induced C57BL/6J mouse model of liver injury assessed as reduction in IL6 expression administered daily for 7 days followed by CCl4 addition and measured after 24 hrs by ELISA; format: functional, organism-based; settings: dose 50-200 mg/kg, time 8.0 day

Row | SMILES | inhibition at 10 µM (RAW264.7 [1]) | IC50 (RAW264.7 [2]) | viability at 24 h, 40 µM [3] | Activity (RAW264.7 [4]) | inhibition (RAW264.7 [5]) | inhibition (RAW264.7 [6]) | inhibition (RAW264.7 [7]) | inhibition (RAW264.7 [8]) | inhibition (RAW264.7 [9]) | inhibition (RAW264.7 [10]) | inhibition (RAW264.7 [11]) | inhibition (RAW264.7 [12]) | inhibition (RAW264.7 [13]) | inhibition (RAW264.7 [14]) | inhibition (RAW264.7 [15]) | Activity (Mus musculus [16]) | Activity (Mus musculus [17]) | Activity (Mus musculus [18]) | Activity (Mus musculus [19]) | Activity (Mus musculus [20])
1 | CCCn1cc(COc2cc(O)c3c(c2)O[C@H](c2ccc(OC)c(O)c2)C/C3=N\O)nn1 | 67.5% | 2.34 µM | 114% | Non-Toxic | Active | Active | Active | Dose-dependent effect | Dose-dependent effect | Dose-dependent effect | Dose-dependent effect | Dose-dependent effect | Active | Dose-dependent effect | Dose-dependent effect | Active | Dose-dependent effect | Dose-dependent effect | Dose-dependent effect | Dose-dependent effect
2 | COc1ccc([C@@H]2C/C(=N\O)c3c(O)cc(OCc4cn(CC5CC5)nn4)cc3O2)cc1O | 67% | 6.32 µM | 86% | – | Active | Active | Active | – | – | – | – | – | – | – | – | – | – | – | – | –
